The record followed here is patent publication US5965578A, “Inhibitors of farnesyl-protein transferase” (Merck & Co., Inc., priority 1997, dated 1999).

Structures are written as SMILES. Counter-ions that a name gives are not always drawn. Like-named read-outs stand apart in the source and are kept apart here. Where only a bound is given, the exact number is not on record here.

The target of this test is T1, human FPTase (Homo sapiens, UniProt P49354+P49356).
T1 construct: made in house
The test is described as follows: In vitro inhibition of ras farnesyl transferase (human FPTase assay). The class given is biochemical. The procedure:
Assays of farnesyl-protein transferase. […] Reactions were initiated with FPTase and stopped with 1 ml of 1.0 M HCL in ethanol. […] Purified compounds were dissolved in 100% dimethyl sulfoxide (DMSO) and were diluted 20-fold into the assay. Percentage inhibition is measured by the amount of incorporation of radioactivity in the presence of the test compound when compared to the amount of incorporation in the absence of the test compound.
Human FPTase activity was assayed as described above with the exception that 0.1% (w/v) polyethylene glycol 20,000, 10 μM ZnCl2 and 100 nM Ras-CVIM were added to the reaction mixture. Reactions were performed for 30 min., stopped with 100 μl of 30% (v/v) trichloroacetic acid (TCA) in ethanol and processed as described above for the bovine enzyme.

A word on the IC50: it is the point on the concentration scale where inhibition reaches its midpoint. In the case of `N#Cc1ccc(Cc2cncn2CC2CCN(c3ccccc3)C(=O)C2)cc1` (centres unmarked) [Example 1, 4-[5-(4-Cyanobenzyl)imidazol-1-ylmethyl]-1-phenyl-2-piperidinone hydrochloride], the IC50 is ≤ 10 µM. On to `CCOC(=O)C1(Cc2cccc(C)c2)CCN(Cc2cncn2Cc2ccc(C#N)cc2)CC1=O` (centres unmarked) [Example 6, Ethyl 1-[3-(4-cyanobenzyl)-3H-imidazol-4-ylmethyl]-3-oxo-4-(3-methylbenzyl)piperidine-4-carboxylate trifluoroacetate salt], for which the IC50 (human FPTase, 100 nM Ras-CVIM, [3H]-FPP, 30 min, read-out: IC50 of inhibitory activity against human FPTase) is ≤ 10 µM.
